In patent publication US9145415B2, “Nitrogen-containing heterocyclic compound or salt thereof” (FUJIFILM Corporation, priority 2012, dated 2015) one finds IC50 data, which are given here for 26 compounds.

pIC50: −log10 of the molar value. Read-outs that look alike come from different tables or passages of the source. Where only a bound is given, the exact number is not on record here.

Experiment [1] deals with Molm-13 cells. The experiment is described as follows: Leukemia cell proliferation inhibition test (ATPlite), Molm-13. It counts as cell-based. To be noted: Homo sapiens, read-out: MOLM13 cell proliferation inhibition effect. The method in brief:
(§1)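 Molm-13 or MV4-11 cells in RPMI with 10% FBS and pen/strep, seeded at 10,000 cells per well, were exposed to serially diluted compound for 72 hours at 37° C, 5% CO2. Total cellular ATP was read by luciferase luminescence. GI50 came from sigmoid fits against the 0.1% DMSO control, in duplicate.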
For orientation: In ATP-based viability assays light output follows the ATP content of the culture.

The target of experiment [2] is T1, human FLT3 protein (FLT3 (WT)) (Homo sapiens, UniProt P36888).
T1 construct: human FLT3 protein (intracellular region, 564 to 993 aa); GST; purchased Carna Biosciences; host or cells: baculovirus expression system
T1 sequence (P36888 564-993): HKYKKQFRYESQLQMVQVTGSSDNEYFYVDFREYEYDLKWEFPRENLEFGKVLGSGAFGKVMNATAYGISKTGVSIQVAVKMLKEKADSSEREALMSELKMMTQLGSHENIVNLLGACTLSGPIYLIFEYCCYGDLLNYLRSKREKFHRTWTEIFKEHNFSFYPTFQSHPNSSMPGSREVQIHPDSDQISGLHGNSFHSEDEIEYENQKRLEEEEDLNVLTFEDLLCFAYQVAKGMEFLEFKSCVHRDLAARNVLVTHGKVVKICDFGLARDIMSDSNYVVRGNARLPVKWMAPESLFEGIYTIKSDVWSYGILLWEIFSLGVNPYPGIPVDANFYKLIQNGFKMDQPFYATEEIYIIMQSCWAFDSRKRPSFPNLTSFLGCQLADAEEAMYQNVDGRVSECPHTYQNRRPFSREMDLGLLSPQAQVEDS
The experiment is described as follows: FLT3 inhibition test (FLT3 enzyme inhibition, time-resolved fluorescence of substrate peptide phosphorylation). It counts as biochemical. To be noted: read-out: FLT3 (WT) enzyme inhibition activity. In outline:
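Substrate peptide phosphorylation detected by time-resolved fluorescence after a 30 min kinase reaction at 25° C with 50 μM ATP (final). Beforehand, compound and FLT3 (WT, 1.2 μg) stood 15 min at 25° C in HEPES buffer pH 7.5 containing MgCl2, NaCl, BSA and DTT.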

Experiment [3] deals with MV4-11 cells. The experiment can be described thus: Leukemia cell proliferation inhibition test (ATPlite), MV4-11. To be noted: Homo sapiens, read-out: MV4-11 cell proliferation inhibition effect. In kind it is cell-based. In outline: as §1
Where [4] appears, read: MOLM-13, 72 h, Molm-13, 72 hours culture, ATPlite, GI50 per method.
Setting [5] is: GST-fused human FLT3 (564 to 993 aa), ATP 50 μM.
The mark [6] stands for this setting: MV4-11, 72 h, MV4-11, 72 hours culture, ATPlite, GI50 per method.

Consider `CCCNc1nc(Nc2ccc(C#N)cc2)ncc1C#CCCCNC(=O)[C@@H]1C[C@@H](F)CN1C(=O)/C=C/CN(C)C` [Compound 7-48], for which the pIC50 in experiment [1] (setting [4]), in experiment [2] (setting [5]) and in experiment [3] (setting [6]) was more than 8.00 each time.
Turning to `CCCNc1nc(Nc2cnc3c(c2)c(C)nn3C)ncc1C#CCCCNC(=O)[C@H](C)N(C)C(=O)/C=C/CN(C)C` [Compound 22-28], the pIC50 in experiment [1] (MOLM-13, MOLM13 cell) was more than 8.00; in experiment [2] (FLT3 (WT)), more than 8.00; in experiment [3] (MV4-11, MV4-11 cell), more than 8.00.
Turning to `COCCCNc1nc(Nc2ccnc(OC)c2)ncc1C#CCCCNC(=O)[C@@H]1C[C@H](O)CN1C(=O)/C=C/CN(C)C` [Compound 9-33], the pIC50 in experiment [1] (setting [4]), in experiment [2] (setting [5]) and in experiment [3] (setting [6]) was more than 8.00 in each case.
In the case of `CNc1nc(Nc2cccc(F)c2)ncc1C#CCCCNC(=O)[C@@H]1C[C@H](OC)CN1C(=O)/C=C/CN(C)C` [Compound 7-73, (2S,4S)-1-((E)-4-(Dimethylamino)-2-butenoyl)-N-(5-(2-((3-fluorophenyl)amino)-4-(methylamino)pyrimidin-5-yl)-4-pentyn-1-yl)-4-methoxypyrrolidine-2-carboxamide], the pIC50 in experiment [1] (setting [4]), in experiment [2] (setting [5]) and in experiment [3] (setting [6]) was more than 8.00 throughout.
For the compound `CCCNc1nc(Nc2ccc(C(N)=O)cc2)ncc1C(=O)Nc1cccc(NC(=O)[C@H](C)N(C)C(=O)/C=C/CN(C)CC)c1` [Compound 4-3], the pIC50 in experiment [1] (setting [4]), in experiment [2] (setting [5]) and in experiment [3] (setting [6]) was more than 8.00 in each case.
Regarding `CCCNc1nc(Nc2cccc(F)c2)ncc1C#CCCCNC(=O)[C@H]1CCCN1C(=O)/C=C/CN(C)C` [Compound 7-94], the pIC50 in experiment [1] (setting [4]), in experiment [2] (setting [5]) and in experiment [3] (setting [6]) was 7.00 to 8.00 throughout.
For the compound `CCCNc1nc(Nc2cnc3[nH]nc(C)c3c2)ncc1C#CCCCNC(=O)[C@H](C)N(C)C(=O)/C=C/CN(C)C` [Compound 22-51, (S,E)-4-(Dimethylamino)-N-methyl-N-(1-((5-(2-((3-methyl-1H-pyrazolo[3,4-b]pyridin-5-yl)amino)-4-(propylamino)pyrimidin-5-yl)-4-pentyn-1-yl)amino)-1-oxopropan-2-yl)-2-butenamide], the pIC50 was more than 8.00 in experiment [1] (MOLM-13, MOLM13 cell); more than 8.00 in experiment [2] (FLT3 (WT)); more than 8.00 in experiment [3] (MV4-11, MV4-11 cell).
`CCCNc1nc(Nc2ccc3nnccc3c2)ncc1C(=O)NCCCNC(=O)[C@H](C)N(C)C(=O)/C=C/CN(C)C` [Compound 6-10B]: the pIC50 in experiment [1] (setting [4]), in experiment [2] (setting [5]) and in experiment [3] (setting [6]) was more than 8.00 in each case.
Consider `CCCNc1nc(Nc2ccc(C#N)cc2)ncc1/C=C\CNC(=O)CCNC(=O)/C=C/CN(C)C` [Compound 7-95], for which the pIC50 is less than 6.00 in experiment [1] (setting [4]), 7.00 to 8.00 in experiment [2] (setting [5]) and less than 6.00 in experiment [3] (setting [6]).
`C[C@@H](C(=O)NCCCC#Cc1cnc(Nc2ccc3c(cnn3C)c2)nc1NC1CC1)N(C)C(=O)/C=C/CN(C)C` [Compound 10-54]: the pIC50 in experiment [1] (setting [4]), in experiment [2] (setting [5]) and in experiment [3] (setting [6]) was more than 8.00 each time.
`CCCNc1nc(Nc2cnc3ccccc3c2)ncc1C#CCCCNC(=O)[C@H](C)N(C)C(=O)/C=C/CN(C)C` [Compound 22-3]: the pIC50 in experiment [1] (MOLM-13, MOLM13 cell) is 7.00 to 8.00; in experiment [2] (FLT3 (WT)), more than 8.00; in experiment [3] (MV4-11, MV4-11 cell) it was 7.00 to 8.00.
As to `Cc1ccc(Nc2nc(Nc3cccc(F)c3)ncc2C#CCCCNC(=O)[C@H](C)N(C)C(=O)/C=C/CN(C)C)cc1` [Compound 10-11], the pIC50 in experiment [1] (setting [4]) is 7.00 to 8.00; in experiment [2] (setting [5]) it was more than 8.00; in experiment [3] (setting [6]), more than 8.00.
Consider `CCCNc1nc(Nc2ccc(C(N)=O)cc2)ncc1C(=O)Nc1cccc(NC(=O)[C@H](C)N(C)C(=O)/C=C/CN(C(C)C)C(C)C)c1` [Compound 4-7], for which the pIC50 in experiment [1] (setting [4]), in experiment [2] (setting [5]) and in experiment [3] (setting [6]) was more than 8.00 each time.
`CCCNc1nc(Nc2cccc(OC(F)(F)F)c2)ncc1C#CCCCNC(=O)[C@H](C)N(C)C(=O)/C=C/CN(C)C` [Compound 11-10]: the pIC50 in experiment [1] (setting [4]) is 7.00 to 8.00; in experiment [2] (setting [5]), more than 8.00; in experiment [3] (setting [6]) it was more than 8.00.
On to `CCCNc1nc(NCC)ncc1C#CCCCNC(=O)[C@H](C)N(C)C(=O)/C=C/CN(C)C` [Compound 11-3], for which the pIC50 in experiment [1] (setting [4]) is 6.00 to 7.00; in experiment [2] (setting [5]), 7.00 to 8.00; in experiment [3] (setting [6]), 6.00 to 7.00.
Regarding `C=CC(=O)NCCC(=O)Nc1cccc(NC(=O)c2cnc(NCCc3ccncc3)nc2NCCC)c1` [Compound 2-7], the pIC50 was 6.00 to 7.00 in experiment [1] (setting [4]), more than 8.00 in experiment [2] (setting [5]) and 7.00 to 8.00 in experiment [3] (setting [6]).
Take `C[C@@H](C(=O)NCCCC#Cc1cnc(Nc2cccc(F)c2)nc1NCCc1cccs1)N(C)C(=O)/C=C/CN(C)C` [Compound 10-9]: the pIC50 in experiment [1] (setting [4]) is 7.00 to 8.00; in experiment [2] (setting [5]), more than 8.00; in experiment [3] (setting [6]), 7.00 to 8.00.
Turning to `C=CC(=O)NCC(=O)N(C)c1cccc(NC(=O)c2cnc(NCCc3ccncc3)nc2NCCC)c1` [Compound 1-5], the pIC50 in experiment [1] (setting [4]), in experiment [2] (setting [5]) and in experiment [3] (setting [6]) was 7.00 to 8.00 each time.
`CCCNc1nc(Nc2ccc3ncsc3c2)ncc1C#CCCCNC(=O)[C@H](C)N(C)C(=O)/C=C/CN(C)C` [Compound 22-6, (S,E)-N-(1-((5-(2-(Benzo[d]thiazol-6-ylamino)-4-(propylamino)pyrimidin-5-yl)-4-pentyn-1-yl)amino)-1-oxopropan-2-yl)-4-(dimethylamino)-N-methyl-2-butenamide]: the pIC50 is more than 8.00 in experiment [1] (MOLM-13, MOLM13 cell); more than 8.00 in experiment [2] (FLT3 (WT)); more than 8.00 in experiment [3] (MV4-11, MV4-11 cell).
Turning to `CNc1nc(Nc2ccc(F)cc2)ncc1C#CCCCNC(=O)[C@@H]1C[C@H](OC)CN1C(=O)/C=C/CN(C)C` [Compound 7-82], the pIC50 in experiment [1] (setting [4]), in experiment [2] (setting [5]) and in experiment [3] (setting [6]) was more than 8.00 throughout.
Take `C=CC(=O)NCCCNC(=O)c1cnc(NCCc2ccncc2)nc1NCCC` [Compound 2-21]: the pIC50 in experiment [1] (setting [4]), in experiment [2] (setting [5]) and in experiment [3] (setting [6]) was 7.00 to 8.00 throughout.
Consider `C=CC(=O)NCC(=O)Nc1cccc(NC(=O)c2cnc(Nc3ccc(C#N)cc3)nc2NCCC)c1` [Compound 6-2, N-(3-(2-(acrylylamido)acetamido)phenyl)-2-((4-cyanophenyl)amino)-4-(propylamino)pyrimidine-5-carboxamide], for which the pIC50 is 6.00 to 7.00 in experiment [1] (setting [4]), 7.00 to 8.00 in experiment [2] (setting [5]) and 7.00 to 8.00 in experiment [3] (setting [6]).
As for `CCCNc1nc(Nc2cnc3c(c2)c(OC)nn3C)ncc1C#CCCCNC(=O)[C@@H]1CCCN1C(=O)/C=C/CN(C)C` [Compound 22-47], the pIC50 in experiment [1] (MOLM-13, MOLM13 cell) was more than 8.00; in experiment [2] (FLT3 (WT)) it was more than 8.00; in experiment [3] (MV4-11, MV4-11 cell), more than 8.00.
As to `CCCNc1nc(Nc2ccc(C#N)cc2)ncc1C#CCNC(=O)CCCNC(=O)/C=C/CN(C)C` [Compound 7-91], the pIC50 was 6.00 to 7.00 in experiment [1] (setting [4]), more than 8.00 in experiment [2] (setting [5]) and 6.00 to 7.00 in experiment [3] (setting [6]).
Turning to `C[C@@H](C(=O)NCCCC#Cc1cnc(Nc2ccc(F)cc2)nc1N1CCN(C)CC1)N(C)C(=O)/C=C/CN(C)C` [Compound 10-28], the pIC50 in experiment [1] (setting [4]) was 7.00 to 8.00; in experiment [2] (setting [5]), more than 8.00; in experiment [3] (setting [6]), more than 8.00.
Turning to `CC(C)CN(C)c1nc(Nc2ccc(C#N)cc2)ncc1C#CCCCNC(=O)[C@H](C)N(C)C(=O)/C=C/CN(C)C` [Compound 10-15], the pIC50 in experiment [1] (setting [4]), in experiment [2] (setting [5]) and in experiment [3] (setting [6]) was more than 8.00 each time.
